From PubChem BioAssay AID2060897 (Molecular Pharmacology Branch, DTP, NCI, 2025)

Test system: 966289-007-R4-J1-PDC complex spheroid viability
Experiment: Anticancer human tumor 966289-007-R4-J1-PDC patient-derived pancreatic adenocarcinoma cell line growth inhibition [RAS]
Conditions: for IC50: curve of first compound; for viability, T/C: stronger effect = lower value
Summary of the method: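 Multi-cell-type spheroids: tumor cells plus HUVEC endothelial cells and mesenchymal stem cells. RAS-pathway inhibitors were combined with targeted agents, each dosed in half-log steps down from clinical Cmax, or from 10 microM when Cmax was unknown.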

[1] = second compound 0.0316 µM, first compound 0.0316 µM
[2] = second compound 0.0316 µM, first compound 0.1 µM
[3] = second compound 0.0316 µM, first compound 0.316 µM
[4] = second compound 0.0316 µM, first compound 1 µM
[5] = second compound 0.1 µM, first compound 0.0316 µM
[6] = second compound 0.1 µM, first compound 0.1 µM
[7] = second compound 0.1 µM, first compound 0.316 µM
[8] = second compound 0.1 µM, first compound 1 µM
[9] = second compound 0.316 µM, first compound 0.0316 µM
[10] = second compound 0.316 µM, first compound 0.1 µM
[11] = second compound 0.316 µM, first compound 0.316 µM
[12] = second compound 0.316 µM, first compound 1 µM
[13] = second compound 1 µM, first compound 0.0316 µM
[14] = second compound 1 µM, first compound 0.1 µM
[15] = second compound 1 µM, first compound 0.316 µM
[16] = second compound 1 µM, first compound 1 µM
[17] = second compound 3.16 µM, first compound 0.0316 µM
[18] = second compound 3.16 µM, first compound 0.1 µM
[19] = second compound 3.16 µM, first compound 0.316 µM
[20] = second compound 3.16 µM, first compound 1 µM
[21] = second compound 10 µM, first compound 0.0316 µM
[22] = second compound 10 µM, first compound 0.1 µM
[23] = second compound 10 µM, first compound 0.316 µM
[24] = second compound 10 µM, first compound 1 µM
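Note: spheroids exposed to agents for one week before readout.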
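Throughout, for viability, T/C: percent viability relative to DMSO vehicle control wells as 100%.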

`C=CC(=O)N1CCN(c2nc(OCC3CCCN3C)nc3c(F)c(-c4nc(N)cc(C)c4C(F)(F)F)c(Cl)cc23)C(C)C1` (centres undefined) + C#Cc1c(F)ccc2cc(O)cc(-c3ncc4c(N5CC6CCC(C5)N6)nc(OCC56CCCN5CC(F)C6)nc4c3F)c12 gave an IC50 (second compound 0.0316 µM) of over 1000 nM, an IC50 (second compound 0.1 µM) of over 1000 nM and an IC50 (second compound 0.316 µM) of over 1000 nM. It also gave an IC50 (second compound 1 µM) of over 1000 nM, an IC50 (second compound 3.16 µM) of over 1000 nM and an IC50 (second compound 10 µM) of over 1000 nM. The viability, T/C (second compound 0.0316 µM, first compound 0.00316 µM) was 106%, the viability, T/C (second compound 0.0316 µM, first compound 0.01 µM) was 99.5% and the viability, T/C [1] was 88.7%. The viability, T/C [2] was 98.2%, the viability, T/C [3] was 108% and the viability, T/C [4] was 91.5%. The viability, T/C (second compound 0.1 µM, first compound 0.00316 µM) was 108%, the viability, T/C (second compound 0.1 µM, first compound 0.01 µM) was 107% and the viability, T/C [5] was 91.1%. The viability, T/C [6] was 95.9%, the viability, T/C [7] was 83.8% and the viability, T/C [8] was 83.3%. For the same compound, the viability, T/C (second compound 0.316 µM, first compound 0.00316 µM) was 105%, the viability, T/C (second compound 0.316 µM, first compound 0.01 µM) was 99.5% and the viability, T/C [9] was 102%. The viability, T/C [10] was 99.7%, the viability, T/C [11] was 97% and the viability, T/C [12] was 80.7%. It also gave a viability, T/C (second compound 1 µM, first compound 0.00316 µM) of 97%, a viability, T/C (second compound 1 µM, first compound 0.01 µM) of 111% and a viability, T/C [13] of 117%. The viability, T/C [14] was 103%, the viability, T/C [15] was 92.5% and the viability, T/C [16] was 96.8%. For the same compound, the viability, T/C (second compound 3.16 µM, first compound 0.00316 µM) was 96.9%, the viability, T/C (second compound 3.16 µM, first compound 0.01 µM) was 107% and the viability, T/C [17] was 113%. For the same compound, the viability, T/C [18] was 102%, the viability, T/C [19] was 110% and the viability, T/C [20] was 92.7%. For the same compound, the viability, T/C (second compound 10 µM, first compound 0.00316 µM) was 118%, the viability, T/C (second compound 10 µM, first compound 0.01 µM) was 82.8% and the viability, T/C [21] was 91.6%. The viability, T/C [22] was 96.4%, the viability, T/C [23] was 89.9% and the viability, T/C [24] was 92.2%.

`CC(=O)OC12COC1CC(O)C1(C)C(=O)C(O)C3=C(C)C(OC(=O)C(O)C(NC(=O)OC(C)(C)C)c4ccccc4)CC(O)(C(OC(=O)c4ccccc4)C21)C3(C)C` (centres undefined) + C#Cc1c(F)ccc2cc(O)cc(-c3ncc4c(N5CC6CCC(C5)N6)nc(OCC56CCCN5CC(F)C6)nc4c3F)c12 gave an IC50 (second compound 0.0316 µM) of under 31.6 nM, an IC50 (second compound 0.1 µM) of under 31.6 nM and an IC50 (second compound 0.316 µM) of under 31.6 nM. For the same compound, the IC50 (second compound 1 µM) was under 31.6 nM, the IC50 (second compound 3.16 µM) was under 31.6 nM and the IC50 (second compound 10 µM) was under 31.6 nM. It also gave a viability, T/C [1] of 9.75%, a viability, T/C [2] of 17.9% and a viability, T/C [3] of 20.4%. It also gave a viability, T/C [4] of 25.6%, a viability, T/C (second compound 0.0316 µM, first compound 3.16 µM) of 50.5% and a viability, T/C (second compound 0.0316 µM, first compound 10 µM) of 69.9%. The viability, T/C [5] was 10.9%, the viability, T/C [6] was 17.9% and the viability, T/C [7] was 19.7%. The viability, T/C [8] was 24.3%, the viability, T/C (second compound 0.1 µM, first compound 3.16 µM) was 36.3% and the viability, T/C (second compound 0.1 µM, first compound 10 µM) was 70.3%. The viability, T/C [9] was 10.4%, the viability, T/C [10] was 19.1% and the viability, T/C [11] was 19.3%. For the same compound, the viability, T/C [12] was 26%, the viability, T/C (second compound 0.316 µM, first compound 3.16 µM) was 49.9% and the viability, T/C (second compound 0.316 µM, first compound 10 µM) was 68.4%. For the same compound, the viability, T/C [13] was 9.72%, the viability, T/C [14] was 18.3% and the viability, T/C [15] was 21.2%. For the same compound, the viability, T/C [16] was 31.8%, the viability, T/C (second compound 1 µM, first compound 3.16 µM) was 44.9% and the viability, T/C (second compound 1 µM, first compound 10 µM) was 71.8%. For the same compound, the viability, T/C [17] was 10.6%, the viability, T/C [18] was 20.9% and the viability, T/C [19] was 25%. It also gave a viability, T/C [20] of 31.7%, a viability, T/C (second compound 3.16 µM, first compound 3.16 µM) of 44.6% and a viability, T/C (second compound 3.16 µM, first compound 10 µM) of 83.2%. For the same compound, the viability, T/C [21] was 10.5%, the viability, T/C [22] was 16.6% and the viability, T/C [23] was 17.8%. For the same compound, the viability, T/C [24] was 27.1%, the viability, T/C (second compound 10 µM, first compound 3.16 µM) was 42.6% and the viability, T/C (second compound 10 µM, first compound 10 µM) was 53.9%.
